The nature of series [1]: physchem. Type of series: physicochemical. The method, then:
To find the solubility of AGP in the optimized SMEDDS (highest amount of AGP that can be loaded into the optimized SMEDDS), an excess amount of A. paniculata extract was added to the 1.5 mL of the optimized SMEDDS and shaken at 37 °C 120 rpm for 72 h in an incubator shaker. Then, the AGPE-loaded optimized SMEDDS was centrifuged at 14,000 rpm for 30 min to separate the extract powder from the AGP-extracted SMEDDS. The supernatant was collected and diluted with methanol before the analysis of AGP content using HPLC. HPLC analysis with UV detection was used to quantify the content of AGP. An Agilent® 1200 (Santa Clara, CA, USA) with an Agilent® ZORBAX Eclipse XDB-C18 (4.6 × 150 mm, 5 µm) column was used. The mobile phase was methanol:water (65:35), and the injection volume was 20 µL. The flow rate was set at 0.8 mL/min, and the detection wavelength was 228 nm. The standard curve of AGP was constructed, ranging from 5 to 200 µg/mL.

Series [2] concerns SARS-CoV-2. Further details: method as in ref 6, Sa-ngiamsuntorn et al., (2021). The following applies: Sa-ngiamsuntorn et al., (2021); cited from earlier work.
Details of series [3]: method as in ref 53, Kim et al., (2019). The following applies: Kim et al., (2019), cited from earlier work.

The structures appear in SMILES notation. Converted amounts (≈) assume the structure as drawn.

As for `C=C1CC[C@@H]2[C@](C)(CO)[C@H](O)CC[C@@]2(C)[C@@H]1C/C=C1/C(=O)OC[C@H]1O` [AGP, andrographolide], in series [1], the solubility is approximately 42 mg/mL (≈ 120 mM). In series [1] (37 °C, thermodynamic from solid), this compound had a solubility at 72 h of approximately 38 mg/mL (≈ 108 mM). The “anti-SARS-CoV-2 activity, IC50” value in series [2] is “equivalent to the antiviral agent remdesivir”.
Take `CN(Cc1cnc2nc(N)nc(N)c2n1)c1ccc(C(=O)N[C@@H](CCC(=O)O)C(=O)O)cc1` [methotrexate]: the “Time within which dissolution was completed” value in series [3] (SMEDDS formulation) was not above 20 min. Further, the Drug powder dissolved in series [3] (drug powder, after 60 min) is reported as 53%.
